Measured values taken from ChEMBL document CHEMBL1201862, “PubChem BioAssay data set” (2004).
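Results reflect a 48-hour exposure of cells in 96-well plates to compound at five concentrations. GI50 = concentration required for 50% inhibition of growth.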 Activity calls are given as the source filed them. Rule as the data show it: active = GI50 up to about 1.1 µM and inactive = higher.

Columns and labels:
Assay in all cases: DTP human tumour cell line panel, 48 h
SW-620 = system: SW-620
RXF 393 = system: RXF 393
SK-MEL-5 = system: SK-MEL-5
786-0 = system: 786-0
A549 = system: A549
NCI-H23 = system: NCI-H23
U-251 = system: U-251
XF498 = system: XF498
Malme-3M = system: Malme-3M
EKVX = system: EKVX
SF-539 = system: SF-539
M19-MEL = system: M19-MEL
NCI-H226 = system: NCI-H226
DLD-1 = system: DLD-1
M14 = system: M14
SF-295 = system: SF-295
OVCAR-3 = system: OVCAR-3
KM12 = system: KM12
KM-20L2 = system: KM-20L2
IGROV-1 = system: IGROV-1
NCI-H522 = system: NCI-H522
HT-29 = system: HT-29
COLO 205 = system: COLO 205
SK-MEL-28 = system: SK-MEL-28
SNB-19 = system: SNB-19
HCT-15 = system: HCT-15
UO-31 = system: UO-31
HOP-18 = system: HOP-18
K562 = system: K562
CCRF-CEM = system: CCRF-CEM
DMS-273 = system: DMS-273
NCI-H460 = system: NCI-H460
LXFL 529 = system: LXFL 529
SR = system: SR
SN12C = system: SN12C
MOLT-4 = system: MOLT-4
TK-10 = system: TK-10
SK-MEL-2 = system: SK-MEL-2
OVCAR-5 = system: OVCAR-5
HCC 2998 = system: HCC 2998
ACHN = system: ACHN
HOP-92 = system: HOP-92
SF-268 = system: SF-268
HL-60 = system: HL-60
UACC-257 = system: UACC-257
RPMI-8226 = system: RPMI-8226
OVCAR-8 = system: OVCAR-8
SK-OV-3 = system: SK-OV-3

Measured: GI50

COC(=O)C12C3C=CC(O3)C1C1C=CC2O1 (stereo not drawn)
inactive: SW-620 > 100 µM | RXF 393 > 100 µM | SK-MEL-5 > 100 µM | 786-0 > 100 µM | A549 > 100 µM | NCI-H23 > 100 µM | U-251 > 100 µM | XF498 > 100 µM | Malme-3M > 100 µM | EKVX > 100 µM | SF-539 > 100 µM | M19-MEL > 100 µM | NCI-H226 > 100 µM | DLD-1 > 100 µM | M14 > 100 µM | SF-295 > 100 µM | OVCAR-3 > 100 µM | KM12 > 100 µM | KM-20L2 > 100 µM | IGROV-1 > 100 µM | NCI-H522 > 100 µM | HT-29 > 100 µM | COLO 205 > 100 µM | SK-MEL-28 > 100 µM | SNB-19 > 100 µM | UO-31 > 100 µM | HOP-18 > 100 µM | K562 > 100 µM | CCRF-CEM > 100 µM | DMS-273 > 100 µM | NCI-H460 > 100 µM | LXFL 529 > 100 µM | SR > 100 µM | SN12C > 100 µM | MOLT-4 > 100 µM | TK-10 > 100 µM | SK-MEL-2 > 100 µM | OVCAR-5 > 100 µM | HCC 2998 > 100 µM | ACHN > 100 µM | HOP-92 > 100 µM | SF-268 > 100 µM | HL-60 > 100 µM | UACC-257 > 100 µM | RPMI-8226 > 100 µM | OVCAR-8 > 100 µM | SK-OV-3 > 100 µM
> 100 µM: HCT-15
